Reference: US8119614B2, “Substitution derivatives of N6-benzyladenosine, methods of their preparation, their use for preparation of drugs, cosmetic preparations and growth regulators, pharmaceutical preparations, cosmetic preparations and growth regulators containing these compounds” (Ustav Experimentalni Botaniky Akademie Ved Ceske Republiky, priority 2002, dated 2012)

Key:
[1] = tested on: spring wheat (variety Sandra); test: Field studies: yield analysis of spring wheat crop; type: in vivo; details: spray of 10^−6 molar solution, Control = 100.0
Description: Crops (over the 4-year period) of spring wheat were sown in the experimental fields of Czech Agriculture University (CZU) (region of sugar beet production type) at a seeding rate of 400 germinative grains·m^−2 into ploughed and shoddy soil containing 116.1 mg/kg P, 228.3 mg/kg K, and 211.8 mg/kg Mg (agrochemical analyses were done at Department of Pedology CZU) (interval between ploughing and sowing is usually 3-4 days, longer only in case of adverse weather conditions). Preceding crop was rape. Soil preparation was done by the classical way using skid and harrow and after seeding is rolled.
(§1) Height of plants, leaf area, dry matter, development of vegetation opex—bases of future spike, and number of spikelets were monitored after germination in 14 day intervals, […]. From these primary data, values used in production physiology are derived, as leaf area index LAI, photosynthetic capacity LAD, tillering potential. Experiments with treatment of spring wheat crop (variety Sandra) are carried out on the field (area 10 m^2, four replicates) by spraying 1 litr of 10^−6 molar solution of tested compound (cytokinin) at the transition period from jointing stage to athesis stage (49 DC).
Yield analysis, evaluating spike lenght and seed number per spikelet (Σ Z/K) were carried out for 30 plant per each variant, yield from 1 m^2 and 1000 grain weight (HTS) was determined from 8 replicates, yield per ha was subsequently calculated.

glutamate kinase = test: Field studies: glutamate kinase activity in spring wheat; type: in vivo; parameters: tested at 1 µM (10^-6 M spray solution); details: 6 days after the application, Control = 100.0
Description: as §1
Glutamate kinase activity was determined 6 days after the application. This enzyme was selected because of good corelation of its activity changes and state of transport of endogenous substances (nutrients from roots, assimilates to cariopsis), respiration, energy (adenosintriphosphate) transfer, storage of nutrients, growth and developmental proceses, and also metabolism of proline, which is known from literature to play an important role in adaptation against stress (unsuitable stand, drought, hypersalinity, coldness) and also in regulation of both theoretical and real production (restriction of seed number reduction per spikelet). Enzyme glutamate kinase catalyses to glutamate conversion into γ glutamylphosphate, which is first step of proline biosynthesis from glutamate. Therefore, this enzyme is, as essential precursor of other plant metabolic pathways, marker of stress inhibition. It can be determined spectrofotometrically (Vasáková, 1980). For analysis, acetone powder is prepared from a sample by standard method, subsequently extracted by 0.05M potassium-phosphate buffer pH=7.2 and centrifugated. Glutamate kinase fraction is precipitated using crystalline ammonium sulfate and after dialysis, glutamate kinase activity is determined spectrophotometrically. Proline accumulation increased by stress corresponds as a “feedback” to glutamate kinase inhibition.

Rosa multiflora = test: In vitro and post vitro multiplication and rooting of rose; type: in vivo; details: for Root number per plant / Total root length per plant (cm): Ex vitro, after four weeks of acclimatising; for Flower number per explant / Number of new shoots per explant / Root number per explant / Total root length per explant (cm): In vitro, 10 μM, 8 weeks
p21^WAF-1 protein = test: Induction of p21^WAF-1 protein in MCF-7 cells (SDS-PAGE, immunodetection); type: cell-based, human
Description: MCF-7 cells cultured at 37° C. in 5% CO2 atmosphere in D-MEM medium supplemented with 10% foetal calf serum were treated with 2OH3MeOBAPR concentrations range of 0-100 μM. 2OH3MeOBAPR was added into the medium from the 100 mM storage solution in DMSO. Cells were harvested after 12 hours incubation with 2OH3MeOBAPR, centrifuged (1000 rpm, 4° C., 5 min), washed twice by ice-cold PBS and re-centrifuged. These washed cells were then lysed by 1×CSB (loading buffer for SDS-PAGE, i.e. electrophoresis of proteins in polyacrylamide gel containing SDS). Cell lysate proteins were separated by SDS-PAGE and transferred onto a nitrocelulose (NC) membrane. NC membrane was blocked by 5% skimmed milk, 0.1% Tween 20 in PBS. Protein level of p21^WAF-1 and actin (as a loaded protein volume control) were detected immunochemically using commercially available specific monoclonal antibodies anti-p21^WAF-1 (Ab-1, Calbiochem) and anti-Actin (Clone AC-40, Sigma-Aldrich). The primary antibodies bind to target proteins were detected using rabbit secondary peroxidase-labeled antibody (RAM-Px, DAKO), followed by chemiluminiscence (ECL, Amersham-Pharmacia).
MCF-7 cells were incubated in presence of 1 μM 2OH3MeOBAPR. Treated cells were harvested and lysed after various time periods of 2OH3MeOBAPR treatment. […]

HL-60 cells [2] = test: HL-60 cell proliferation and viability (FDA/PI staining); type: cell-based, human
Description: (§2) Cell culture. A suspension of human promyelocytic HL-60 cells was cultured in RPMI-1640 medium supplemented with a 10% calf foetal serum and antibiotics in 5% CO2 atmosphere at 37° C. Cells were maintained at density from 1×10^5 to 6×10^5 cells per ml. HL-60 cells were obtained from ECACC.
Cell viability assay. Double staining with fluorescein diacetate (FDA) and propidium iodide (PI) for discrimination of dead and living cells was used. Cells were stained in growing medium with PI at a concentration 10 μg/ml 5 min later FDA was added at a concentration 1 μg/ml. The percentage of dead cells (i.e., red stained cells) was evaluated using fluorescence microscopy (Mlejnek and Kolman 1999).

HL-60 cells [3] = test: Cell cycle analysis (flow cytometry); type: cell-based, human; details: 5 μM, 24 h (FIG. 8)
Description: as §2
Cell cycle analysis. Cells were washed in PBS and then fixed in 70% ethanol at −20° C. over night. Fixed cells are washed in PBS and stained in PBS containing PI (20 μg/ml) and RNase A (100 μg/ml) for 30 min at 37° C. prior to FACScan analysis (Mlejnek and Kolman 1999).

OC[C@H]1O[C@@H](n2cnc3c(NCc4cccc(Cl)c4)ncnc32)[C@H](O)[C@@H]1O [3-chlorobenzylamino, 6-(3-chlorobenzylamino)purine riboside]
HTS (%) (1000 grain weight) [1]: 108.3%
Yield(%) [1]: 128.8%
Σ Z/K (%) (seed number per spikelet) [1]: 119.1%
Σ spike/m^2 (%) [1]: 100.5%
GK % (glutamate kinase activity) (glutamate kinase): 124.7%

OC[C@H]1O[C@@H](n2cnc3c(NCc4cccc(Br)c4)ncnc32)[C@H](O)[C@@H]1O [3-bromobenzylamino, 6-(3-bromobenzylamino)purine riboside]
HTS (%) (1000 grain weight) [1]: 101.5%
Yield(%) [1]: 131.8%
Σ Z/K (%) (seed number per spikelet) [1]: 123.8%
Σ spike/m^2 (%) [1]: 104.9%
GK % (glutamate kinase activity) (glutamate kinase): 116.6%

COc1cccc(CNc2ncnc3c2ncn3[C@@H]2O[C@H](CO)[C@@H](O)[C@H]2O)c1 [3-methoxybenzylamino, 6-(3-methoxybenzylamino)purine riboside]
Root number per plant (Rosa multiflora): 1.4
Total root length per plant (cm) (Rosa multiflora): 3.5 cm
Flower number per explant (Rosa multiflora): 0.00
Number of new shoots per explant (Rosa multiflora): 5.6
Root number per explant (Rosa multiflora): 0.0
Total root length per explant (cm) (Rosa multiflora): 0.0 cm

COc1ccccc1CNc1ncnc2c1ncn2[C@@H]1O[C@H](CO)[C@@H](O)[C@H]1O [2-methoxybenzylamino, 6-(2-methoxybenzylamino)purine riboside]
Root number per plant (Rosa multiflora): 1.6
Total root length per plant (cm) (Rosa multiflora): 4.8 cm
Flower number per explant (Rosa multiflora): 0.17
Number of new shoots per explant (Rosa multiflora): 1.4
Root number per explant (Rosa multiflora): 0.0
Total root length per explant (cm) (Rosa multiflora): 0.0 cm

COc1cccc(CNc2ncnc3c2ncn3[C@@H]2O[C@H](CO)[C@@H](O)[C@H]2O)c1O [2-hydroxy-3-methoxybenzylamino, 6-(2-hydroxy-3-methoxybenzylamino)purine riboside]
p21^WAF-1 protein induction in dependence on duration of incubation (p21^WAF-1 protein; 1 μM, 6-24 hours after addition): Efficient p21^WAF-1 protein induction is achieved
p21^WAF-1 protein induction in dependence on concentration (p21^WAF-1 protein; 12 hours, 0-100 μM, effective at units of μmol/liter): Efficient p21^WAF-1 protein induction is achieved
inhibition of HL-60 cell proliferation (HL-60 cells [2]; 2.5-60 μM (FIG. 4)): inhibit cell proliferation
cytotoxicity of the compound itself versus its phosphorylated forms (HL-60 cells [2]; HL-60 cells): is not cell cytotoxic by itself
effect on cell cycle (HL-60 cells [3]): does not inhibit cell cycle in certain control point(s), but rather unspecifically

OC[C@H]1O[C@@H](n2cnc3c(NCc4ccc(Cl)c(Cl)c4)ncnc32)[C@H](O)[C@@H]1O [3,4-dichlorobenzylamino, 6-(3,4-dichlorobenzylamino)purine riboside]
HTS (%) (1000 grain weight) [1]: 101.5%
Yield(%) [1]: 113.3%
Σ Z/K (%) (seed number per spikelet) [1]: 111.9%
Σ spike/m^2 (%) [1]: 99.7%
GK % (glutamate kinase activity) (glutamate kinase): 114.2%
